These are literature values, as cited in patent US12213954B2, “Colchicine solution” (PHARMA-DATA RESEARCH AND D[…] MEMBER S.A., priority 2021, dated 2025).

For this data set the following is noted: pure colchicine.

SMILES strings stand for the structures.

Turning to `COc1cc2c(c(OC)c1OC)-c1ccc(OC)c(=O)cc1[C@@H](NC(C)=O)CC2` [colchicine, (S)—N-(5,6,7,9-tetrahydro-1,2,3,10-tetramethoxy-9-oxo-benzo[a]heptalene-7-yl)acetamide], the “solubility in water, ethanol and chloroform (in words)” value was “well soluble”.
